Assay results from the supplement of paper PMC12076712.

Legend:
Assay in all cases: pIC50, kinobeads binding competition
UniProt P04629 = conditions: cell material: Lysate mix
Summary of the method: (§1)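 Jurkat cells were exposed alive to nine compound concentrations (top 30 μM, 1:4 steps) or vehicle for 60 min at 37 °C and then lysed. In a second format, nine concentrations (top 30 μM, 1:5 steps) were incubated for 60 min at 4 °C with Jurkat lysate or with a 1:1:1:1 lysate mix of HEK293, K-562, HepG2 and placenta. Proteins captured on Kinobeads were digested and quantified by TMT10 LC-MS/MS. pIC50 values were derived from logistic dose-response fits (R drc package) of fold changes relative to vehicle, in biological duplicates.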

ACVR1 = molecular target: T1, ACVR1 (UniProt Q04771)
T1 sequence (whole entry): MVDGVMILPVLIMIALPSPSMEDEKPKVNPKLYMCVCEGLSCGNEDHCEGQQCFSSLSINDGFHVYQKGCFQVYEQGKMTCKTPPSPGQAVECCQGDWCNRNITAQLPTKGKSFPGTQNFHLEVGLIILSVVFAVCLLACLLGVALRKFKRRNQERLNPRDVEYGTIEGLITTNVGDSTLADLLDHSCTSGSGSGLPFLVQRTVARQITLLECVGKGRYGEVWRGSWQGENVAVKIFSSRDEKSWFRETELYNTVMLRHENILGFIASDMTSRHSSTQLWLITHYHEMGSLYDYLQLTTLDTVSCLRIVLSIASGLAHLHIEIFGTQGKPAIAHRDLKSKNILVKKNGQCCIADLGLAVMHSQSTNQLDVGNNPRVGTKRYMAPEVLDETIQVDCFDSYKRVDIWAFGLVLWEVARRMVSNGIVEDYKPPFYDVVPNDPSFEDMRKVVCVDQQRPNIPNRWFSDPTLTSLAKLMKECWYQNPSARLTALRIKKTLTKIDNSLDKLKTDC
Summary of the method: as §1

UniProt Q9Y2K2 = molecular target: UniProt Q9Y2K2
Summary of the method: as §1

UniProt Q5TCX8 = molecular target: UniProt Q5TCX8
Summary of the method: as §1

GAK = molecular target: T2, GAK (UniProt O14976)
T2 sequence (whole entry): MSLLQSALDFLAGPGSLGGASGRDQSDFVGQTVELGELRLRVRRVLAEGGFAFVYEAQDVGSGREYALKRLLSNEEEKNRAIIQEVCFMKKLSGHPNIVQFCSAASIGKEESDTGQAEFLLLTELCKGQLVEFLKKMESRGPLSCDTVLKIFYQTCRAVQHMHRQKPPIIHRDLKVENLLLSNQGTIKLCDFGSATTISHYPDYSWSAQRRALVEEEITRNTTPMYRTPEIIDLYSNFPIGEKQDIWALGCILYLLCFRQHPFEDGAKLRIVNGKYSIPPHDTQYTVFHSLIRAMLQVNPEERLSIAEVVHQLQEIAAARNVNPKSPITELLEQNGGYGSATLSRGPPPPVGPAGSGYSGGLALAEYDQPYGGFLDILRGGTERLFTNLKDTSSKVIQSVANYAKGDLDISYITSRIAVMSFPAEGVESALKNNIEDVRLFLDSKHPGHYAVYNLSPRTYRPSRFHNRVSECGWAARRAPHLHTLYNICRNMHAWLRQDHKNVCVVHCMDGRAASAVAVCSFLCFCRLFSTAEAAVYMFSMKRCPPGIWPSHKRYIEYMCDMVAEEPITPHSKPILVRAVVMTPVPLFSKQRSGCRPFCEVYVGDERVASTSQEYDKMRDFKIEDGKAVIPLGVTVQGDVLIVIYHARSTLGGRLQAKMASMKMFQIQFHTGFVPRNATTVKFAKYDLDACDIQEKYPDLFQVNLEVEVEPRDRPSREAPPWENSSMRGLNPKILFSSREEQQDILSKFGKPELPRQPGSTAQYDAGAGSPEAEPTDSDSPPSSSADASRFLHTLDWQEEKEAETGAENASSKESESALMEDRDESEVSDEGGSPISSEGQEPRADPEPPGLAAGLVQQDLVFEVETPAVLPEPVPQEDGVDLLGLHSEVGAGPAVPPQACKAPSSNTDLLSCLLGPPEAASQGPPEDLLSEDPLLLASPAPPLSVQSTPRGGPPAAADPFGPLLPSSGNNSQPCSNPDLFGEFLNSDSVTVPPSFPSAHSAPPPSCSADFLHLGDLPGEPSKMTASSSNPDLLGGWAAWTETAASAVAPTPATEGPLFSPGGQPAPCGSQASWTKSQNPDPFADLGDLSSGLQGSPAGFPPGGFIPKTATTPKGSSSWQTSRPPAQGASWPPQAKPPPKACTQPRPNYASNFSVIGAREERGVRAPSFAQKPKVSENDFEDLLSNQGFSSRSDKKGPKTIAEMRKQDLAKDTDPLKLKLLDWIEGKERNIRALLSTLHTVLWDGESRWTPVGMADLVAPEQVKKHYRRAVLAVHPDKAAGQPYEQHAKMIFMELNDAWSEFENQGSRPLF
Summary of the method: as §1

UniProt P04629, sequence (P04629 whole entry, looked up): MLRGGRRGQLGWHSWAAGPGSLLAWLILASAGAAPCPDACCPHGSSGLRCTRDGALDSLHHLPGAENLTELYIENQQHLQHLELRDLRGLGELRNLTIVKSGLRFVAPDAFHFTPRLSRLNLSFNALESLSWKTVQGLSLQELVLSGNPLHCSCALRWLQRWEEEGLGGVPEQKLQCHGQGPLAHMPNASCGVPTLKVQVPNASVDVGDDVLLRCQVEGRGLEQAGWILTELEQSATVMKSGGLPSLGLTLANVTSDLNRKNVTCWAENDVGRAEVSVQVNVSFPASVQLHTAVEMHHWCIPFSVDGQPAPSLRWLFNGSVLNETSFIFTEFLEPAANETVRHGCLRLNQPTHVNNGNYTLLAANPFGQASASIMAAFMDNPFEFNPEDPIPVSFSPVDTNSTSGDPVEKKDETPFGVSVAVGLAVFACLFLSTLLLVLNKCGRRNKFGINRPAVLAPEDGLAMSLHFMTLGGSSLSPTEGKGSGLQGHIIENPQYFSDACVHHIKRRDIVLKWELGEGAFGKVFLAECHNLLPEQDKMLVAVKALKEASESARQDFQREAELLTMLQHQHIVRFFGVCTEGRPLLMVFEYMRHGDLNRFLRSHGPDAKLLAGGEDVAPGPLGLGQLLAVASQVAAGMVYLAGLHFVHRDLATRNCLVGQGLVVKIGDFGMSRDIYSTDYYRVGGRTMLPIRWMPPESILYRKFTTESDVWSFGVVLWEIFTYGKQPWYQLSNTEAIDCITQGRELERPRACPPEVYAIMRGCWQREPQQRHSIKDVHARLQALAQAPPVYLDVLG
UniProt Q9Y2K2, sequence (Q9Y2K2 whole entry, looked up): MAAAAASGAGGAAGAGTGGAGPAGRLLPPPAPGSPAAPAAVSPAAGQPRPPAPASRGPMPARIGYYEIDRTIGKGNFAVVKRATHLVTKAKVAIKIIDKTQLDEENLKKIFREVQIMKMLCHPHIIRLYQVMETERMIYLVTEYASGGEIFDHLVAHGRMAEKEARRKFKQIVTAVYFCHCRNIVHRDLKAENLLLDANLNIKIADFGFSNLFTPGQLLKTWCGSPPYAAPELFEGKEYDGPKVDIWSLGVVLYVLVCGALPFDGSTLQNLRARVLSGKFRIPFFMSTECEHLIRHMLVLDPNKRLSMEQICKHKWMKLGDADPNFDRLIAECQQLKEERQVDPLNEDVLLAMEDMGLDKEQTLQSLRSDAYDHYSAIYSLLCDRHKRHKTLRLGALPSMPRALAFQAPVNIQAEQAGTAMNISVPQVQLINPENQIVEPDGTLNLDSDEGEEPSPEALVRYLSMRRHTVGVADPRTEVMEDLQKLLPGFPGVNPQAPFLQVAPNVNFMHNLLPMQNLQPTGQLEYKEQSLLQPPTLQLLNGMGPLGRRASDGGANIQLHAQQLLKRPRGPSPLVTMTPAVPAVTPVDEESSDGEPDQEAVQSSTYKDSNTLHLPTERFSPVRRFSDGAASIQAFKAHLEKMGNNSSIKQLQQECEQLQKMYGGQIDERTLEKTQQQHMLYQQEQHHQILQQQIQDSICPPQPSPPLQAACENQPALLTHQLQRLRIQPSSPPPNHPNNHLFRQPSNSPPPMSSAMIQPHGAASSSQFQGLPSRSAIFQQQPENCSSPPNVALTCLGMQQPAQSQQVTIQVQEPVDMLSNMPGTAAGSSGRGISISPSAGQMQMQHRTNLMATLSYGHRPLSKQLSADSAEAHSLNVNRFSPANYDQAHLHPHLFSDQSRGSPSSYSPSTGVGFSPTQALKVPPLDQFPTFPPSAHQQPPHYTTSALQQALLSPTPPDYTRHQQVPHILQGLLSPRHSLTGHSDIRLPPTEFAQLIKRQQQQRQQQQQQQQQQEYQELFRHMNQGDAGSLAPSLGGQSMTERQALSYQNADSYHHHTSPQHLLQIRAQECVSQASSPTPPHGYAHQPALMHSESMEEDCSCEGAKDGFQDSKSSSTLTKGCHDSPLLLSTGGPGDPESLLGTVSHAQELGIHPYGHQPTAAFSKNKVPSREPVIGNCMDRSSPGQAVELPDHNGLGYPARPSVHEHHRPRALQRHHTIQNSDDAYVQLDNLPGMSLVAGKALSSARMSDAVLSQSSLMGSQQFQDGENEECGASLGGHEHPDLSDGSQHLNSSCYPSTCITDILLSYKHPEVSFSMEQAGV
UniProt Q5TCX8, sequence (Q5TCX8 whole entry): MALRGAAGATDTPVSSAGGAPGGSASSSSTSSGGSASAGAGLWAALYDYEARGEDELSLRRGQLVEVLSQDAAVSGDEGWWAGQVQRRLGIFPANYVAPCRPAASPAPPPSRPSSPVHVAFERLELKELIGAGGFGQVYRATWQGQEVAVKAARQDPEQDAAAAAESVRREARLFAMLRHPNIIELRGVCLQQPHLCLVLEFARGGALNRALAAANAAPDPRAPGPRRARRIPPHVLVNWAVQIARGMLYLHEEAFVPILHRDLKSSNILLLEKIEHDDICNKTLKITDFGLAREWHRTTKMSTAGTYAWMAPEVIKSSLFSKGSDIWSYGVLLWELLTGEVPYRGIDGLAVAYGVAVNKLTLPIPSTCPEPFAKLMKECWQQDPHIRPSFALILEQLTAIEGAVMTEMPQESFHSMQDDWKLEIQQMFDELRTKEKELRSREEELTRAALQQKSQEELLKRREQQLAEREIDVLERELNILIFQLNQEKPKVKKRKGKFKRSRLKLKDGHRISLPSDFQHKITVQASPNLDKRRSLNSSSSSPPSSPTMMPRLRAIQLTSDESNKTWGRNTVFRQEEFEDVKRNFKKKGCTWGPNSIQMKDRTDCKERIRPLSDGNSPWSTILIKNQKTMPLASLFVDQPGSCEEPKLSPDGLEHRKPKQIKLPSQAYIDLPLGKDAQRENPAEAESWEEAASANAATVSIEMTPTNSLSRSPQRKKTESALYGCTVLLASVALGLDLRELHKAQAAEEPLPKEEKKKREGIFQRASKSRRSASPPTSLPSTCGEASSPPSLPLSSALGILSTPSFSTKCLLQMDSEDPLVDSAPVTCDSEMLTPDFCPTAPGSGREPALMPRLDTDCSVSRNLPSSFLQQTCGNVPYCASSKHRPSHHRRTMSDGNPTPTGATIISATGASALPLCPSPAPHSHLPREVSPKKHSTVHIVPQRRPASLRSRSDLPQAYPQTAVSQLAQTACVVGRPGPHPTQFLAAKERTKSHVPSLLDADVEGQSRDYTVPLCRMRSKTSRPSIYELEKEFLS

Row | pIC50 (UniProt P04629) | pIC50 (ACVR1; cell material: Lysate mix) | pIC50 (UniProt Q9Y2K2; cell material: Jurkat cells) | pIC50 (UniProt Q9Y2K2; cell material: Lysate mix) | pIC50 (UniProt Q5TCX8; cell material: Jurkat lysate) | pIC50 (UniProt Q5TCX8; cell material: Lysate mix) | pIC50 (GAK; cell material: Lysate mix) | Structure (SMILES) | pIC50 (ACVR1; cell material: Jurkat cells) | pIC50 (ACVR1; cell material: Jurkat lysate) | pIC50 (UniProt Q9Y2K2; cell material: Jurkat lysate) | pIC50 (UniProt Q5TCX8; cell material: Jurkat cells) | pIC50 (GAK; cell material: Jurkat cells) | pIC50 (GAK; cell material: Jurkat lysate)
1 | < 4.52 | < 4.52 | < 4.52 | < 4.52 | < 4.52 | < 4.52 | < 4.52 | O=C(NCCNC(=O)c1cc(Nc2cc(C3CC3)[nH]n2)nc(N2CCN(Cc3ccc(S(=O)(=O)F)cc3)CC2)n1)OC1CC/C=C/CCC1 (centres undefined) | 4.68 | < 4.52 | < 4.52 | 4.93 | < 4.52 | < 4.52
2 | < 4.52 | < 4.52 |  | < 4.52 |  | < 4.52 | < 4.52 | Cc1cc(Nc2cc(C(=O)NCCNC(=O)OC3CC/C=C/CCC3)nc(N3CCN(Cc4ccc(S(=O)(=O)F)cc4)CC3)n2)n[nH]1 (centres undefined) |  |  |  |  |  | 
3 | 5.58 | 4.74 |  | < 4.52 |  | 4.65 | < 4.52 | CCNC(=O)c1cc(Nc2cc(C3CC3)[nH]n2)nc(N2CCN(Cc3ccc(S(=O)(=O)F)cc3)CC2)n1 |  |  |  |  |  | 
4 | < 4.52 | < 4.52 |  | < 4.52 |  | < 4.52 | < 4.52 | CCNC(=O)c1cc(Nc2cc(C)[nH]n2)nc(N2CCN(Cc3ccc(S(=O)(=O)F)cc3)CC2)n1 |  |  |  |  |  | 
5 | < 4.52 | < 4.52 |  | < 4.52 |  | < 4.52 | < 4.52 | C#CCNC(=O)c1cc(Nc2cc(C)[nH]n2)nc(N2CCN(Cc3ccc(S(=O)(=O)F)cc3)CC2)n1 |  |  |  |  |  | 

Row | Structure (SMILES) | pIC50 (UniProt P04629) | pIC50 (ACVR1; cell material: Lysate mix) | pIC50 (UniProt Q9Y2K2; cell material: Jurkat cells) | pIC50 (UniProt Q9Y2K2; cell material: Lysate mix) | pIC50 (UniProt Q5TCX8; cell material: Jurkat lysate) | pIC50 (UniProt Q5TCX8; cell material: Lysate mix) | pIC50 (GAK; cell material: Lysate mix) | pIC50 (ACVR1; cell material: Jurkat cells) | pIC50 (ACVR1; cell material: Jurkat lysate) | pIC50 (UniProt Q9Y2K2; cell material: Jurkat lysate) | pIC50 (UniProt Q5TCX8; cell material: Jurkat cells) | pIC50 (GAK; cell material: Jurkat cells) | pIC50 (GAK; cell material: Jurkat lysate)
6 | C#CCNC(=O)c1cc(Nc2cc(C3CC3)[nH]n2)nc(N2CCN(Cc3ccc(S(=O)(=O)F)cc3)CC2)n1 | 5.39 | 5.14 |  | < 4.52 |  | 4.8 | < 4.52 | 5.78 | 4.66 | < 4.52 | 5.78 | < 4.52 | < 4.52
